Columns and labels:
[1] = Vapor pressure reduction: malodors in closed flask headspace, cold finger collection, GC FID; type: physicochemical; conditions: with 1 g active in separate dish, sealed 500 mL flask, four hours, cold finger 10° C.
Method: Two 500 mL Erlenmeyer flasks were prepared with a blend of five malodor substances (200 mg total; indole, methyl phenyl acetate, skatol, p-cresyl isovalerate, isoamyl phenylacetate) in a small dish. To one flask, in a separate small dish, was added 1 g of 5-methyl-2-(1-methylethyl)-cyclohexanol acetate. Each flask was sealed with a cold finger through which water at 10° C. was passed. After four hours, the flasks were opened and the cold fingers were washed with diethyl ether. This eluent is representative of the headspace above the sample, and quantifies the malodor concentration in the air. The collected diethyl ether fractions were made to a standard volume and analyzed by gas chromatography (GC FID). This experiment is meant to analyze the interaction of malodor with 5-methyl-2-(1-methylethyl)-cyclohexanol acetate in a way that mimics a consumer's experience.

[2] = Malodor reduction via sensory testing, sweat malodor model; design: species or system human; conditions: trained female panel N=9, 1=no odor to 10=strongest imaginable, averaged, malodor only 5.8, 0.0% control 5.1
Method: (§1) A trained sensory panel consisting of females, (N=9) ages 40-55 years old evaluated the samples. Panelists are regularly trained on fragrance and malodor intensity scoring and must pass routine screening and calibration tests to remain on the panel. Panelist onboarding and orientation was performed following ASTM Committee E-18 on Sensory Evaluation of Materials and Products, Guidelines for the Selection and Training of Sensory Panel Members (ASTM STP758, American Society for Testing and Materials, 1981, pp. 1-35). Panelists were selected based on health, interest, availability, descriptive and scaling ability, olfactory acuity, attitude and personality. Panelists are introduced to intensity measurement using selected intensity standards and exercised in the use of the scaling system to quantify intensity.
(§2) Training and evaluation was performed for six weeks following orientation. Each panelist completed practice sessions where they were exposed to different types of odors (malodor, fragrance, etc.) and different substrates (fabric, clothing, blotter cards, jars, etc.). Panelist inclusion was dependent upon panel administrator discussions, specific response evaluation, and comparison to standards.
(§3) In this example, feminine wash was formulated with various concentrations of 5-methyl-2-(1-methylethyl)-cyclohexanol acetate, as shown in Table 1 below. A sample without of 5-methyl-2-(1-methylethyl)-cyclohexanol acetate was used as a control.
(§4) The sweat malodor model is comprised of malodors including 3-methyl-2-hexenoic acid and 3-mercapto-3-methyl-1-hexanol. The feminine odor model contains acetic acid, 2-methyl-butyric acid, valeric acid and trimethyl amine. The trained panelists subjectively evaluated the samples using a 10-point scoring scale (1=no odor to 10=strongest imaginable). Panelists are first shown the malodor only sample as a reference, and asked to rate its odor intensity. Panelists are then shown the test samples in a blinded fashion labelled with a 3 digit code. There is a 45 second wait time between samples to prevent olfactive fatigue. […]

[3] = Malodor reduction via sensory testing, feminine (vaginal) odor model; design: species or system human; conditions: trained female panel N=9, 1=no odor to 10=strongest imaginable, averaged, malodor only 6.0, 0.0% control 5.3
Method: as §1, §2, §3, §4

CC(=O)O[C@@H]1C[C@H](C)CC[C@H]1C(C)C [5-methyl-2-(1-methylethyl)-cyclohexanol acetate]
Relative Amount of Malodor: skatol ([1]; without active 0.06): 0.0003
Relative Amount of Malodor: p-cresyl isovalerate ([1]; without active 0.10): 0.0002
Relative Amount of Malodor: isoamyl phenylacetate ([1]; without active 1.20): 0.0000
Relative Amount of Malodor: indole ([1]; without active 1.30): 0.0300
Relative Amount of Malodor: methyl phenyl acetate ([1]; without active 1.50): 0.0000
Sweat Malodor intensity rating from 1 to 10 ([2]; 0.1% active in feminine wash): 4.8
Sweat Malodor intensity rating from 1 to 10 ([2]; 0.2% active in feminine wash): 3.0
Sweat Malodor intensity rating from 1 to 10 ([2]; 0.5% active in feminine wash): 2.2
Feminine (Vaginal) Malodor intensity rating from 1 to 10 ([3]; 0.1% active in feminine wash): 4.5
Feminine (Vaginal) Malodor intensity rating from 1 to 10 ([3]; 0.2% active in feminine wash): 3.3
Feminine (Vaginal) Malodor intensity rating from 1 to 10 ([3]; 0.5% active in feminine wash): 2.6
